Results published in patent US11224609B2, “Mithramycin derivatives having increased selectivity and anti-cancer activity” (University of Kentucky Research Foundation, priority 2017, dated 2022).
Read-outs that look alike come from different tables or passages of the source.

How the values were obtained:
[1] = test system: TC-32 (Ewing sarcoma, EWS-FLI1 Type 1) cell line; details: for TC-32 Ewing sarcoma EWS-FLI1 Type 1 GI50: 72 h growth inhibition, TC-32 cells; for GI50 ratio PC-3:TC-32: selectivity, GI50 in PC-3 over GI50 in TC-32
[2] = test system: PC-3 (prostate cancer, no ETS translocation) cell line; assay: 72 h growth inhibition (GI50) assay in PC-3; details: read-out: PC-3 Prostate cancer No ETS Translocation GI50
[3] = test system: TC-71 Ewing sarcoma cells (EWS-FLI1 Type 1); details: 72 h growth inhibition
[4] = test system: VCaP prostate cancer cells (TMPRSS2-ERG); assay: 72 h GI50 assay in VCaP
[5] = test system: 5838 Ewing sarcoma cells (EWS-ERG); assay: 72 h GI50 assay in 5838
[6] = test system: ES-8 Ewing sarcoma cells (EWS-FLI1 Type 2); assay: 72 h GI50 assay in ES-8; details: read-out: ES-8 EWS-FLI1 Type 2 GI50; 72 h growth inhibition
[7] = test system: ES-7 Ewing sarcoma cells (EWS-FLI1 Type 4); assay: 72 h GI50 assay in ES-7; details: read-out: ES-7 EWS-FLI1 Type 4 GI50; 72 h growth inhibition
HeLa cells = assay: 72 h GI50 assay in HeLa; details: read-out: HeLa GI50; 72 h growth inhibition
[8] = test system: RD-ES Ewing sarcoma cells (EWS-FLI1 Type 2); assay: 72 h GI50 assay in RD-ES; details: read-out: RD-ES EWS-FLI1 Type 2 GI50; 72 h growth inhibition
[9] = test system: A-673 Ewing sarcoma cells (EWS-FLI1 Type 1); assay: 72 h GI50 assay in A-673; details: read-out: A-673 EWS-FLI1 Type 1 GI50; 72 h growth inhibition
DU 145 cells = assay: 72 h GI50 assay in DU 145; details: read-out: DU 145 GI50; 72 h growth inhibition
PANC-1 cells = assay: 72 h GI50 assay in PANC-1; details: read-out: PANC-1 GI50; 72 h growth inhibition
HCT 116 cells = assay: 72 h GI50 assay in HCT 116; details: read-out: HCT 116 GI50; 72 h growth inhibition
DMS 114 cells = assay: 72 h GI50 assay in DMS 114; details: read-out: DMS 114 GI50; 72 h growth inhibition
[10] = test system: Ewing sarcoma cell lines (TC-32, 5838, RD-ES, TC-71, A-673, ES-2, ES-7, ES-8); assay: Median GI50 in panel of Ewing sarcoma cell lines
[11] = test system: ES-2 Ewing sarcoma cells (EWS-FLI1 Type 3); assay: 72 h GI50 assay in ES-2; details: read-out: ES-2 EWS-FLI1 Type 3 GI50; 72 h growth inhibition
A549 cells = assay: 72 h GI50 assay in A549; details: read-out: A549 GI50; 72 h growth inhibition
[12] = 72 h growth inhibition, PC-3 cells

Row | Compound | TC-32 Ewing sarcoma EWS-FLI1 Type 1 GI50 [1] [nM] | GI50 ratio PC-3:TC-32 [1] | GI50 [2, 12] [nM] | further results
1 | C=CCc1cccc2c(CC(NC(=O)C(OC)C3Cc4cc5cc(OC6CC(OC7CC(O)C(O)C(C)O7)C(O)C(C)O6)c(C)c(O)c5c(O)c4C(=O)C3OC3CC(OC4CC(OC5CC(C)(O)C(O)C(C)O5)C(O)C(C)O4)C(O)C(C)O3)C(=O)OC)c[nH]c12 (centres unmarked) [Analogue 53] | 794 | 3.8 | 2990 | –
2 | CO[C@H](C(=O)O)[C@@H]1Cc2cc3cc(OC4CC(OC5CC(O)[C@H](O)C(C)O5)[C@H](O)C(C)O4)c(C)c(O)c3c(O)c2C(=O)[C@H]1OC1CC(OC2CC(OC3CC(C)(O)[C@H](O)C(C)O3)[C@@H](O)C(C)O2)[C@H](O)C(C)O1 (some centres unmarked) [MTMSA (2), Mithramycin SA, reference compound] | >10000 | – | – | GI50 ([2]; Homo sapiens, PC-3, 72 h): > 10000 nM
3 | COC(=O)C(Cc1ccccc1)NC(=O)C(Cc1ccccc1)NC(=O)C(OC)C1Cc2cc3cc(OC4CC(OC5CC(O)C(O)C(C)O5)C(O)C(C)O4)c(C)c(O)c3c(O)c2C(=O)C1OC1CC(OC2CC(OC3CC(C)(O)C(O)C(C)O3)C(O)C(C)O2)C(O)C(C)O1 (centres unmarked) [Analogue 63, MTMSA-Phe-Phe] | 232 | 4.9 | 1130 | TC-71 EWS-FLI1 Type 1 GI50 [3]: 211 nM; GI50 ([4]; read-out: VCaP Prostate Cancer TMPRSS2-ERG GI50, 72 h growth inhibition, VCaP cells): 442 nM; Ratio of median GI50 Prostate cells lacking TMPRSS2-ERG:VCaP ([4]; selectivity for VCaP over other prostate cancer cell lines): 2.6; GI50 ([5]; read-out: 5838 Ewing Sarcoma EWS-ERG GI50, 72 h growth inhibition, 5838 cells): 579 nM; Ratio of median GI50 Non-Ewing sarcoma cell lines (cf Table 3):5838 ([5]; selectivity for 5838 cells): 3.4; GI50 [6]: 542 nM; GI50 [7]: 910 nM; GI50 (HeLa cells): 1770 nM; GI50 [8]: 3050 nM; GI50 [9]: 491 nM; GI50 (DU 145 cells): 159 nM; GI50 (PANC-1 cells): 1960 nM; GI50 (HCT 116 cells): 437 nM; GI50 (DMS 114 cells): 2310 nM; Ratio of Median GI50 non-Ewing sarcoma:Ewing sarcoma (Selectivity Index) ([10]; median GI50 non-Ewing panel over Ewing panel): 3.5; Selectivity Index ratio Analogues:MTM (1) ([10]; selectivity index relative to MTM (1)): 2.3
4 | COC(=O)C(Cc1c[nH]c2ccc([N+](=O)[O-])cc12)NC(=O)C(OC)C1Cc2cc3cc(OC4CC(OC5CC(O)C(O)C(C)O5)C(O)C(C)O4)c(C)c(O)c3c(O)c2C(=O)C1OC1CC(OC2CC(OC3CC(C)(O)C(O)C(C)O3)C(O)C(C)O2)C(O)C(C)O1 (centres unmarked) [Analogue 50] | 353 | 1.8 | 646 | –
5 | COC(=O)C(Cc1c[nH]c2cc(-n3cc(-c4ccccc4)nn3)ccc12)NC(=O)C(OC)C1Cc2cc3cc(OC4CC(OC5CC(O)C(O)C(C)O5)C(O)C(C)O4)c(C)c(O)c3c(O)c2C(=O)C1OC1CC(OC2CC(OC3CC(C)(O)C(O)C(C)O3)C(O)C(C)O2)C(O)C(C)O1 (centres unmarked) [Analogue 54] | 1030 | 5.7 | 5880 | –
6 | COC(=O)C(Cc1cn(C)c2ccccc12)NC(=O)C(Cc1cn(C)c2ccccc12)NC(=O)C(OC)C1Cc2cc3cc(OC4CC(OC5CC(O)C(O)C(C)O5)C(O)C(C)O4)c(C)c(O)c3c(O)c2C(=O)C1OC1CC(OC2CC(OC3CC(C)(O)C(O)C(C)O3)C(O)C(C)O2)C(O)C(C)O1 (centres unmarked) [Analogue 62] | 7834 | – | > 10000 | –
7 | C=CCn1cc(CC(NC(=O)C(OC)C2Cc3cc4cc(OC5CC(OC6CC(O)C(O)C(C)O6)C(O)C(C)O5)c(C)c(O)c4c(O)c3C(=O)C2OC2CC(OC3CC(OC4CC(C)(O)C(O)C(C)O4)C(O)C(C)O3)C(O)C(C)O2)C(=O)OC)c2ccccc21 (centres unmarked) [Analogue 47] | 2715 | 1.2 | 3140 | –
8 | COC(=O)C(Cc1c[nH]c2ccc(OC)cc12)NC(=O)C(OC)C1Cc2cc3cc(OC4CC(OC5CC(O)C(O)C(C)O5)C(O)C(C)O4)c(C)c(O)c3c(O)c2C(=O)C1OC1CC(OC2CC(OC3CC(C)(O)C(O)C(C)O3)C(O)C(C)O2)C(O)C(C)O1 (centres unmarked) [Analogue 49] | 675 | 0.9 | 617 | –
9 | COC(=O)C(Cc1cn(Cc2ccccc2)c2ccccc12)NC(=O)C(OC)C1Cc2cc3cc(OC4CC(OC5CC(O)C(O)C(C)O5)C(O)C(C)O4)c(C)c(O)c3c(O)c2C(=O)C1OC1CC(OC2CC(OC3CC(C)(O)C(O)C(C)O3)C(O)C(C)O2)C(O)C(C)O1 (centres unmarked) [Analogue 46] | 2297 | – | > 10000 | –
10 | COC(=O)C(Cc1ccc2ccccc2c1)NC(=O)C(OC)C1Cc2cc3cc(OC4CC(OC5CC(O)C(O)C(C)O5)C(O)C(C)O4)c(C)c(O)c3c(O)c2C(=O)C1OC1CC(OC2CC(OC3CC(C)(O)C(O)C(C)O3)C(O)C(C)O2)C(O)C(C)O1 (centres unmarked) [Analogue 58] | 541 | 3.0 | 1600 | –
11 | COC(=O)C(Cc1c[nH]c2cc(C(F)(F)F)ccc12)NC(=O)C(OC)C1Cc2cc3cc(OC4CC(OC5CC(O)C(O)C(C)O5)C(O)C(C)O4)c(C)c(O)c3c(O)c2C(=O)C1OC1CC(OC2CC(OC3CC(C)(O)C(O)C(C)O3)C(O)C(C)O2)C(O)C(C)O1 (centres unmarked) [Analogue 55] | 2339 | 1.0 | 2400 | –
12 | Mithramycin SA Phenylalanine [MTMSA-Phe (4), reference compound] | 32 | – | 910 | TC-71 EWS-FLI1 Type 1 GI50 [3]: 143 nM; GI50 [6]: 72 nM; GI50 [11]: 261 nM; GI50 [7]: 156 nM; GI50 (HeLa cells): 545 nM; GI50 (A549 cells): 1240 nM; GI50 [8]: 91 nM; GI50 (DU 145 cells): 315 nM; GI50 (PANC-1 cells): 261 nM; GI50 (HCT 116 cells): 256 nM; GI50 (DMS 114 cells): 483 nM; GI50 ([10]; read-out: Median GI50 in Ewing sarcoma cell lines, median over 8 Ewing sarcoma cell lines, 72 h): 117 nM
13 | COC(=O)C(Cc1c[nH]c2c(-c3ccccc3)cccc12)NC(=O)C(OC)C1Cc2cc3cc(OC4CC(OC5CC(O)C(O)C(C)O5)C(O)C(C)O4)c(C)c(O)c3c(O)c2C(=O)C1OC1CC(OC2CC(OC3CC(C)(O)C(O)C(C)O3)C(O)C(C)O2)C(O)C(C)O1 (centres unmarked) [Analogue 52] | 2402 | – | > 10000 | –
14 | COC(=O)C(Cc1c[nH]c2cc3ccccc3cc12)NC(=O)C(OC)C1Cc2cc3cc(OC4CC(OC5CC(O)C(O)C(C)O5)C(O)C(C)O4)c(C)c(O)c3c(O)c2C(=O)C1OC1CC(OC2CC(OC3CC(C)(O)C(O)C(C)O3)C(O)C(C)O2)C(O)C(C)O1 (centres unmarked) [Analogue 57] | 3505 | – | > 10000 | fold decrease in activity in the TC-32 cell line ([1]; compared with the tryptophan parent): ~34 fold
